In series [1] the test system is H460 NSCLC. Put plainly: H460 ectopic tumor model, TH-302 with carboplatin. Type of series: in vivo, nude mice. The note with it: Carboplatin 20 mg/kg IV Q7Dx2; TH-302 100 mg/kg IP Q7Dx2; alone or combined. As to the method:
(§1) Anti-tumor activity was evaluated by tumor growth inhibition (TGI) and tumor growth delay (TGD). Body weight change, gross and microscopic assessment of tissue changes, and hematologic assays served for toxicity assessment.
(§2) Testing in these models was conducted generally as follows. 1×10^6 H460 human non-small cell lung cancer or HT1080 human fibrosarcoma cells were implanted in the subcutaneous space of the right flank to obtain ectopic xenograft models. For the orthotopic pancreatic model, red-fluorescent protein (RFP) expressing MIA PaCa2 tumors were surgically implanted on the surface of the pancreas. The prostate metastatic model was created by the intraventricular injection of 3×10^6 luciferase-expressing PC-3 cells. […] API grade of TH-302 was used in all experiments while docetaxel, gemcitabine, doxorubicin and pemetrexed were purchased from commercial sources.
Inhibition of tumor growth after administration of TH-302 and carboplatin was greater than for either drug individually in an ectopic tumor model using H460 cells.

Series [2] relates to PC-3 human prostate cancer cells. Put plainly: PC-3 ectopic xenograft, TH-302/docetaxel dosing schedules. In kind it is in vivo, nude mice. The note with it: single agent, TH-302 150 mg/kg ip once or Docetaxol 10 mg/kg iv once.
Series [3] has as its system H460 human non-small cell lung cancer. The experiment in a line: H460 ectopic xenograft, TH-302/docetaxel dosing schedules. Type of series: in vivo, nude mice. The note with it: single agent, TH-302 100 mg/kg ip once or Docetaxol 10 mg/kg iv once. As to the method: (§3) Anti-tumor activity was evaluated by tumor growth delay (TGD) and tumor growth inhibition (TGI). Body weight change, gross and microscopic assessment of tissue changes, and hematologic assays served for toxicity assessment. Testing in these models was conducted generally as follows. 1×10^6 (H460 human non-small cell lung cancer or HT1080 human fibrosarcoma cells) or 3×10^6 (PC-3 human prostate cancer cells) were implanted in the subcutaneous space of the right flank to obtain ectopic xenograft models. Randomization and dosing was initiated when tumors reached a certain size (100-150 mm^3). API grade of TH-302 was used in all experiments while docetaxel, gemcitabine, cisplatin, pemetrexed, and doxorubicin were purchased from commercial sources.
The H460 cells were prepared in 30% Matrigel and 70%. RPMI1640. Mice were anesthetized by isoflurane and were implanted subcutaneously with 1×10^6 cells (in 200 μl) at the flank position. We selected 110 mice bearing similar size tumors (˜100 mm^3) for the study. Mice bearing similar tumor size were randomly assigned into different groups. Treatment started on day 1 (7 days after tumor implantation) except as noted. […] Animals were observed daily and tumor measurements and body weights recorded twice weekly.

Series [4] deals with Calu6 NSCLC. The experiment in a line: Calu-6 ectopic tumor model, TH-302 with doxorubicin. Type of series: in vivo, nude mice. The note with it: Dox 4 mg/kg IV Q7Dx2; TH-302 50 mg/kg IP QDx5/wkx2wks; alone or combined.
Series [5] concerns HT1080 human fibrosarcoma cells. The experiment in a line: HT1080 ectopic xenograft, TH-302/doxorubicin dosing schedules. The note with it: single agent, TH-302 100 mg/kg ip 1/wkx2wks or Dox 4 mg/kg iv 1/wkx2wks. Type of series: in vivo, nude mice. Here is the method:
as §3
(§4) The H460 cells were prepared in 30% Matrigel and 70%. RPMI1640. Mice were anesthetized by isoflurane and were implanted subcutaneously with 1×10^6 cells (in 200 μl) at the flank position. We selected 110 mice bearing similar size tumors (˜100 mm^3) for the study. Mice bearing similar tumor size were randomly assigned into different groups. Treatment started on day 1 (7 days after tumor implantation) except as noted. TH-302 was administered intraperitoneally (IP) at 150 mg/kg, and docetaxel was administered intravenously (IV) at 10 mg/kg. Animals were observed daily and tumor measurements and body weights recorded twice weekly.
In a study conducted substantially as described above except the cells implanted were HT1080 human fibrosarcoma cells and 1×10^6 cells were implanted and mice were randomized into separate groups when their […]

Series [6] has as its system HT29 colon cancer. Put plainly: HT-29 ectopic tumor model, TH-302 with 5FU. Type of series: in vivo, nude mice. The note with it: 5-FU 50 mg/kg IV Q3Dx4; TH-302 150 mg/kg IP Q7Dx3; alone or combined.
Series [7] relates to H460 NSCLC. Put plainly: H460 ectopic lung cancer model, TH-302 with pemetrexed. In kind it is in vivo, nude mice. The note with it: PMX 150 mg/kg 1/wkx2wks IP; TH-302 50 mg/kg 5/wkx2wks IP; alone or combined. As to the method: as §1, §2
The subject of series [8] is H460 NSCLC cells. Put plainly: H460 ectopic xenograft, TH-302/pemetrexed dosing schedules. In kind it is in vivo, nude mice. The note with it: single agent, TH-302 100 mg/kg ip Q7Dx2 or PMX 150 mg/kg ip Q7Dx2. Here is the method: as §3, §4
In a study conducted substantially as described above except the cells implanted were H460 NSCLC cells and 1×10^6 cells were implanted and mice were randomized into separate groups when their tumors reached ˜100 mm^3 and the chemotherapeutic employed was pemetrexed at a dose of 150 mg/kg given once a week (Q7D) for two weeks IP and the TH-302 was given at 100 mg/kg given once a week (Q7D) for two weeks IP. […]

For series [9] the following is noted: single agent, Phase I study; cited from earlier work.
The subject of series [10] is orthotopic prostate cancer PC-3 cells. The experiment in a line: Orthotopic PC-3 prostate cancer model, TH-302 with Taxol. Type of series: in vivo, mice. The note with it: single agents: Taxol 12 mg/kg; TH-302 30 or 50 mg/kg. Here is the method: TH-302 was tested as monotherapy and in combination with Taxol (paclitaxel) in animals bearing highly invasive and metastatic orthotopic prostate cancer PC-3 cells. Animals were randomized into 6 groups of 8 mice each and then treated either with vehicle; Taxol (12 mg/kg, IV, twice a week for 4 consecutive weeks); TH-302 (30 or 50 mg/kg, IP, once a day for 5 days a week for 2 consecutive weeks); or Taxol in combination with TH-302 (using the same single agent regimens).

The term T/C denotes the ratio of treated to control. As to `N.N.O=C([O-])C1(C(=O)[O-])CCC1.[Pt+2]` [Carboplatin, carboplatin, reference compound], in series [1], the “Days to 500 mm^3” value came to 11.5 days; the “Days to 1000 mm^3” value worked out at 18.5 days; the T/C was determined as 69.7%; the “TGD500, Days (vs. vehicle)” value came to 2 days. In addition, in series [1], the “TGD1000, Days (vs. vehicle)” value amounted to 4.5 days; the TGI was determined as 30.3%; the “Tn (tumor volume on Day n)” value turned out to be 855.6.

Consider `CC(=O)O[C@@]12CO[C@@H]1C[C@H](O)[C@@]1(C)C(=O)[C@H](O)C3=C(C)[C@@H](OC(=O)[C@H](O)[C@@H](NC(=O)OC(C)(C)C)c4ccccc4)C[C@@](O)([C@@H](OC(=O)c4ccccc4)[C@H]21)C3(C)C` [Docetaxol, docetaxel, reference compound], for which, in series [2], the “Days to 500 mm^3” value worked out at 26 days; the T/C is listed as 49.1%; the “TGD500, Days (vs. vehicle)” value stood at 10 days; the TGI is 50.9%. Besides, the “Tn (tumor volume on Day n)” value in [2] (in mm³) was found to be 563.22. In series [3], the “Days to 500 mm^3” value came out at 18 days; the “Days to 1000 mm^3” value came out at 27 days; the T/C is 57.6%; the “TGD500, Days (vs. vehicle)” value is 5 days. Further, in [3], the “TGD1000, Days (vs. vehicle)” value turned out to be 7 days and the TGI was found to be 42.4%. In [3] (in mm³), the “Tn (tumor volume on Day n)” value is 681.36.

As for `COc1cccc2c1C(=O)c1c(O)c3c(c(O)c1C2=O)C[C@@](O)(C(=O)CO)C[C@@H]3O[C@H]1C[C@H](N)[C@H](O)[C@H](C)O1` [Dox, doxorubicin, reference compound], in series [4], the “Days to 500 mm^3” value worked out at 27 days; the “Days to 1000 mm^3” value was 35 days; the T/C is 67.7%; the “TGD500, Days (vs. vehicle)” value amounted to 9 days. Further, in series [4], the “TGD1000, Days (vs. vehicle)” value was 4 days; the TGI was 32.3%; the “Tn (tumor volume on Day n)” value is recorded as 773.97. Also, in series [5], the “Days to 500 mm^3” value was found to be 24 days; the T/C worked out at 5.1%; the “TGD500, Days (vs. vehicle)” value stood at 12 days; the TGI was determined as 94.9%. In addition, the “Tn (tumor volume on Day n)” value in series [5] turned out to be 154.79.

For the compound `O=c1[nH]cc(F)c(=O)[nH]1` [Formulation 5-FU, 5-fluorouracil, reference compound], in series [6], the “Days to 500 mm^3” value was 31 days; the “Days to 1000 mm^3” value worked out at 43 days; the T/C is on record as 43.1%; the “TGD500, Days (vs. vehicle)” value worked out at 9 days. For the same compound, in [6], the “TGD1000, Days (vs. vehicle)” value was determined as 11 days; the TGI amounted to 56.9%; the “Tn (tumor volume on Day n)” value worked out at 514.11.

As for `Nc1nc2[nH]cc(CCc3ccc(C(=O)N[C@@H](CCC(=O)O)C(=O)O)cc3)c2c(=O)[nH]1` [PMX, pemetrexed, reference compound], in [7], the “Days to 500 mm^3” value is 19 days; the “Days to 1000 mm^3” value is 29 days; the T/C is on record as 70.2%; the “TGD500, Days (vs. vehicle)” value amounted to 5 days. In addition, in series [7], the “TGD1000, Days (vs. vehicle)” value was 5 days; the TGI turned out to be 29.8%; the “Tn (tumor volume on Day n)” value worked out at 850.21. In addition, in series [8], the “Days to 500 mm^3” value came out at 14 days; the “Days to 1000 mm^3” value is 24 days; the T/C is 72.4%; the “TGD500, Days (vs. vehicle)” value was found to be 2 days. In series [8], the “TGD1000, Days (vs. vehicle)” value came out at 3 days; the TGI worked out at 27.6%; the “Tn (tumor volume on Day n)” value was 817.45.

In the case of `CS(=O)(=O)OCCN(CCBr)c1c(C(=O)NCCOP(=O)(O)O)cc([N+](=O)[O-])cc1[N+](=O)[O-]` [PR104], in series [9], the “Maximum tolerated dose (MTD) and recommended dose” value is 1,100 mg/m^2.

As to `CC(=O)O[C@H]1C(=O)[C@@]2(C)[C@H]([C@H](OC(=O)c3ccccc3)[C@]3(O)C[C@H](OC(=O)[C@H](O)[C@@H](NC(=O)c4ccccc4)c4ccccc4)C(C)=C1C3(C)C)[C@]1(OC(C)=O)CO[C@@H]1C[C@@H]2O` [Taxol, paclitaxel, reference compound], the “Primary tumor growth during the treatment period” value in series [10] is “significantly inhibited primary tumor growth”.

Values taken from patent US8946275B2, “Treatment of cancer using hypoxia activated prodrugs” (Threshold Pharmaceuticals, Inc., priority 2008, dated 2015).
